# Measurements published in PubChem BioAssay (NCI).
#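 Five concentrations, 48 hours, 96-well plates. TGI: total growth inhibition.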
# Columns and labels:
# Experiment in all cases: NCI tumour cell line growth inhibition, 48 h
# [1] = system: SW-620 colon
# [2] = system: OVCAR-5 ovarian
# [3] = system: KM12 colon
# [4] = system: UO-31 renal
# [5] = system: NCI-H522 lung
# [6] = system: OVCAR-4 ovarian
# [7] = system: SNB-19 CNS
# [8] = system: NCI-H23 lung
# [9] = system: A498 renal
# [10] = system: SF-268 CNS
# [11] = system: ACHN renal
# [12] = system: MALME-3M melanoma
# [13] = system: PC-3 prostate
# [14] = system: MDA-MB-435
# [15] = system: K-562 leukemia
# [16] = system: IGROV1 ovarian
# [17] = system: SK-MEL-5 melanoma
# [18] = system: UACC-62 melanoma
# [19] = system: CCRF-CEM leukemia
# [20] = system: BT-549 breast
# [21] = system: M14 melanoma
# [22] = system: HL-60(TB) leukemia
# [23] = system: OVCAR-8 ovarian
# [24] = system: MDA-N
# [25] = system: SK-OV-3 ovarian
# [26] = system: NCI/ADR-RES ovarian
# [27] = system: SR leukemia
# [28] = system: HOP-62 NSCLC
# [29] = system: SN12C renal
# [30] = system: DU-145 prostate
# [31] = system: TK-10 renal
# [32] = system: SF-295 CNS
# [33] = system: RPMI-8226 leukemia
# [34] = system: SK-MEL-2 melanoma
# [35] = system: HOP-92 NSCLC
# [36] = system: HCT-15 colon
# [37] = system: HS 578T breast
# [38] = system: LOX IMVI melanoma
# [39] = system: MCF7 breast
# [40] = system: MOLT-4 leukemia
# [41] = system: SK-MEL-28 melanoma
# [42] = system: HT29 colon
# [43] = system: A549 NSCLC
# [44] = system: NCI-H460 lung
# [45] = system: CAKI-1 renal
# [46] = system: MDA-MB-231 breast
# [47] = system: HCC-2998 colon
# [48] = system: U251 CNS
# [49] = system: HCT-116 colon
# [50] = system: 786-0 renal
# [51] = system: T-47D breast
# [52] = system: UACC-257 melanoma
# [53] = system: RXF 393 renal
# [54] = system: EKVX NSCLC
# [55] = system: COLO 205 colon
# [56] = system: NCI-H226 lung
# [57] = system: SF-539 CNS
# [58] = system: SNB-75 CNS
# [59] = system: OVCAR-3 ovarian
smiles,measurement,setting,value
c1ccc2c(c1)Nc1nc3nonc3nc1N2,TGI,[1],> 100 µM
same,TGI,[2],> 100 µM
same,TGI,[3],> 100 µM
same,TGI,[4],> 100 µM
same,TGI,[5],> 100 µM
same,TGI,[6],> 100 µM
same,TGI,[7],> 100 µM
same,TGI,[8],> 100 µM
same,TGI,[9],> 100 µM
same,TGI,[10],> 100 µM
same,TGI,[11],> 100 µM
same,TGI,[12],> 100 µM
same,TGI,[13],> 100 µM
same,TGI,[14],> 100 µM
same,TGI,[15],> 100 µM
same,TGI,[16],> 100 µM
same,TGI,[17],> 100 µM
same,TGI,[18],> 100 µM
same,TGI,[19],> 100 µM
same,TGI,[20],> 100 µM
same,TGI,[21],> 100 µM
same,TGI,[22],> 100 µM
same,TGI,[23],> 100 µM
same,TGI,[24],> 100 µM
same,TGI,[25],> 100 µM
same,TGI,[26],> 100 µM
same,TGI,[27],> 100 µM
same,TGI,[28],> 100 µM
same,TGI,[29],> 100 µM
same,TGI,[30],> 100 µM
same,TGI,[31],> 100 µM
same,TGI,[32],> 100 µM
same,TGI,[33],> 100 µM
same,TGI,[34],> 100 µM
same,TGI,[35],> 100 µM
same,TGI,[36],> 100 µM
same,TGI,[37],> 100 µM
same,TGI,[38],> 100 µM
same,TGI,[39],> 100 µM
same,TGI,[40],> 100 µM
same,TGI,[41],> 100 µM
same,TGI,[42],> 100 µM
same,TGI,[43],> 100 µM
same,TGI,[44],> 100 µM
same,TGI,[45],> 100 µM
same,TGI,[46],> 100 µM
same,TGI,[47],> 100 µM
same,TGI,[48],> 100 µM
same,TGI,[49],> 100 µM
same,TGI,[50],> 100 µM
same,TGI,[51],> 100 µM
same,TGI,[52],> 100 µM
same,TGI,[53],> 100 µM
same,TGI,[54],> 100 µM
same,TGI,[55],> 100 µM
same,TGI,[56],> 100 µM
O=C(CCCl)NNC1=NCCN1,TGI,[1],> 100 µM
same,TGI,[2],> 100 µM
same,TGI,[3],> 100 µM
same,TGI,[4],> 100 µM
same,TGI,[5],> 100 µM
same,TGI,[6],> 100 µM
same,TGI,[7],> 100 µM
same,TGI,[8],> 100 µM
same,TGI,[9],> 100 µM
same,TGI,[10],> 100 µM
same,TGI,[11],> 100 µM
same,TGI,[12],> 100 µM
same,TGI,[13],> 100 µM
same,TGI,[57],> 100 µM
same,TGI,[14],> 100 µM
same,TGI,[15],> 100 µM
same,TGI,[16],> 100 µM
same,TGI,[17],> 100 µM
same,TGI,[18],> 100 µM
same,TGI,[19],> 100 µM
same,TGI,[20],> 100 µM
same,TGI,[21],> 100 µM
same,TGI,[22],> 100 µM
same,TGI,[23],> 100 µM
same,TGI,[24],> 100 µM
same,TGI,[25],> 100 µM
same,TGI,[26],> 100 µM
same,TGI,[58],> 100 µM
same,TGI,[27],> 100 µM
same,TGI,[28],> 100 µM
same,TGI,[29],> 100 µM
same,TGI,[30],> 100 µM
same,TGI,[31],> 100 µM
same,TGI,[32],> 100 µM
same,TGI,[33],> 100 µM
same,TGI,[34],> 100 µM
same,TGI,[35],> 100 µM
same,TGI,[59],> 100 µM
same,TGI,[36],> 100 µM
same,TGI,[37],> 100 µM
same,TGI,[38],> 100 µM
same,TGI,[39],> 100 µM
same,TGI,[40],> 100 µM
same,TGI,[41],> 100 µM
same,TGI,[42],> 100 µM
same,TGI,[43],> 100 µM
same,TGI,[44],> 100 µM
same,TGI,[46],> 100 µM
same,TGI,[47],> 100 µM
same,TGI,[48],> 100 µM
same,TGI,[49],> 100 µM
same,TGI,[50],> 100 µM
same,TGI,[51],> 100 µM
same,TGI,[52],> 100 µM
same,TGI,[53],> 100 µM
same,TGI,[54],> 100 µM
same,TGI,[55],> 100 µM
same,TGI,[56],> 100 µM
CN(C)CCCc1c[nH]c2ccccc12,TGI,[1],> 100 µM
same,TGI,[2],> 100 µM
same,TGI,[3],> 100 µM
same,TGI,[4],> 100 µM
same,TGI,[5],> 100 µM
same,TGI,[6],> 100 µM
same,TGI,[7],> 100 µM
same,TGI,[8],> 100 µM
same,TGI,[9],> 100 µM
same,TGI,[10],> 100 µM
same,TGI,[11],> 100 µM
same,TGI,[12],> 100 µM
same,TGI,[13],> 100 µM
same,TGI,[57],> 100 µM
same,TGI,[14],> 100 µM
same,TGI,[15],> 100 µM
same,TGI,[16],> 100 µM
same,TGI,[17],> 100 µM
same,TGI,[18],> 100 µM
same,TGI,[19],> 100 µM
same,TGI,[20],> 100 µM
same,TGI,[21],> 100 µM
same,TGI,[22],> 100 µM
same,TGI,[23],> 100 µM
same,TGI,[24],> 100 µM
same,TGI,[25],> 100 µM
same,TGI,[26],> 100 µM
same,TGI,[58],> 100 µM
same,TGI,[27],> 100 µM
same,TGI,[28],> 100 µM
same,TGI,[29],> 100 µM
same,TGI,[30],> 100 µM
same,TGI,[31],> 100 µM
same,TGI,[32],> 100 µM
same,TGI,[33],> 100 µM
same,TGI,[34],> 100 µM
same,TGI,[35],> 100 µM
same,TGI,[59],> 100 µM
same,TGI,[36],> 100 µM
same,TGI,[37],> 100 µM
same,TGI,[38],> 100 µM
same,TGI,[39],> 100 µM
same,TGI,[40],> 100 µM
same,TGI,[41],> 100 µM
same,TGI,[42],> 100 µM
same,TGI,[43],> 100 µM
same,TGI,[44],> 100 µM
same,TGI,[45],> 100 µM
same,TGI,[46],> 100 µM
same,TGI,[47],> 100 µM
same,TGI,[48],> 100 µM
same,TGI,[49],> 100 µM
same,TGI,[50],> 100 µM
same,TGI,[51],> 100 µM
same,TGI,[52],> 100 µM
same,TGI,[53],> 100 µM
same,TGI,[54],> 100 µM
same,TGI,[55],> 100 µM
same,TGI,[56],> 100 µM
O=C(Cc1ccc(Cl)c(Cl)c1)N(CCc1ccc(Cl)c(Cl)c1)CCN1CCCC1,TGI,[2],3.48 µM
same,TGI,[3],3.67 µM
same,TGI,[4],3.46 µM
same,TGI,[5],3.3 µM
same,TGI,[6],5.28 µM
same,TGI,[7],4.9 µM
same,TGI,[8],3.95 µM
same,TGI,[9],3.45 µM
same,TGI,[10],5.5 µM
same,TGI,[11],3.28 µM
same,TGI,[12],3.16 µM
same,TGI,[13],3.77 µM
same,TGI,[57],3.31 µM
same,TGI,[14],3.38 µM
same,TGI,[15],3.66 µM
same,TGI,[16],3.27 µM
same,TGI,[17],3.41 µM
same,TGI,[18],3.27 µM
same,TGI,[19],3.12 µM
same,TGI,[20],7.04 µM
same,TGI,[21],3.56 µM
same,TGI,[22],3.35 µM
same,TGI,[23],3.82 µM
same,TGI,[24],3.15 µM
same,TGI,[25],7.49 µM
same,TGI,[26],4.73 µM
same,TGI,[58],4.31 µM
same,TGI,[27],2.98 µM
same,TGI,[28],3.38 µM
same,TGI,[30],4.59 µM
same,TGI,[31],3.22 µM
same,TGI,[32],3.84 µM
same,TGI,[33],3.62 µM
same,TGI,[34],3.36 µM
same,TGI,[35],4.74 µM
same,TGI,[59],5.47 µM
same,TGI,[36],3.7 µM
same,TGI,[37],11.2 µM
same,TGI,[39],3.27 µM
same,TGI,[40],2.98 µM
same,TGI,[41],2.99 µM
same,TGI,[42],3.56 µM
same,TGI,[43],4.25 µM
same,TGI,[44],3.39 µM
same,TGI,[45],3.1 µM
same,TGI,[46],3.26 µM
same,TGI,[47],3.33 µM
same,TGI,[48],3.15 µM
same,TGI,[49],3.09 µM
same,TGI,[50],3 µM
same,TGI,[51],16.1 µM
same,TGI,[52],3.51 µM
same,TGI,[53],3.34 µM
same,TGI,[54],3.78 µM
same,TGI,[55],3.38 µM
same,TGI,[56],4.91 µM
